Measurements as given in US20090054376A1, “BENZOFURAN DERIVATIVES WITH THERAPEUTIC ACTIVITIES” (Pharmos Corporation, priority 2005, published 2009).

Tests used:
[1] = system: TNBS induced inflammatory bowel disease; assay: TNBS induced inflammatory bowel disease; assay type: in vivo, Female Balb/C mice; settings: 20 mg/kg i.p. daily
Protocol: Female Balb/C mice (average body weight 20 g, Harlan, Israel) were lightly sedated and challenged rectally, by instillation with 70 μl of 2.5% TNBS (Sigma) dissolved in 50% ethanol, to induce intestinal inflammation and colitis. Animals were weighted before the beginning of the study and treatment was administered i.p. on a daily basis for six days at 20 mg/kg and volume dosage of 5 ml/kg. During the study period of up to 7 days, the following parameters were daily monitored and recorded: body weight, presence of blood in the stool and stool consistency. These findings are scored according to Table 6 [Murthy S.N. et al., Dig. Dis. Sci. 38:1722-34, 1993].
On the last day of the study, animals were euthanized. Abdomen was open and the colon was sectioned at the level of the caecum and the rectum. The colon was weighted and its length was measured. The whole column was excised, slited longitudinally, and examined under a magnifying lens. Any visible damage was recorded and scored for gross pathology according to Wong [Wong et al., J. Pharm. Exp. Ther. 274: 475-80, 1995]. Namely, a score of 0 indicates no damage, 1 indicates localized hyperemia and/or edema, 2 indicates at least two sites of hyperemia and/or edema, 3 indicates localized erosion, 4 indicates localized ulcer and 5 indicates either an erosion site or ulcer extending for more than 2 cm along the colon or at least two sites of erosion or ulcer. Finally, the entire colon was fixed in 4% formaldehyde for histopathological evaluation.
Each treatment group comprised at least seven animals. The following groups served as negative controls: naïve animals, sham animals that received 70 μl of 50% ethanol without TNBS, and TNBS challenged untreated and vehicle treated animals. A group of animals receiving 10 mg/kg sulfasalazine served as positive controls. Sulfasalazine is a standard anti-inflammatory drug used for the treatment of mild to moderate ulcerative colitis and Crohn's disease, and as adjunctive therapy in the treatment of severe ulcerative colitis. This drug is also used for the treatment of non-IBD related disorders, such as rheumatoid arthritis and ankylosing spondylitis. The recognized side effect of this medicament is its hepatotoxicity upon chronic treatment.

[2] = system: IL-10; assay: Gene expression in LPS activated RAW 264.7 macrophages, IL-10; assay type: cell-based, mouse; settings: RAW 264.7, 10 μM, LPS 1 μg/ml, RNA 3 hrs after activation
Protocol: RAW 264.7 macrophages, a mouse cell line (ATCC # TIB 71), were grown in Dulbecco's modified Eagle's medium (DMEM) with 4 mM L-glutamine adjusted to contain 1.5 g/L sodium bicarbonate, 4.5 g/L glucose, and 10% heat inactivated fetal bovine serum. Cells were grown in tissue culture flasks and seeded at appropriate density into 6 wells tissue culture plates. Four million Raw cells in half a milliliter were stimulated with 1 μg/ml LPS E. coli 055:B5 (DIFCO Laboratories). The mouse macrophages were pre-treated for one hour with controls or 10 μM of test compounds, and later on activated with LPS. RNA samples were extracted from the cells 3 hrs after activation and gene expression levels were analyzed by real-time RT-PCR. In parallel, supernatants were collected and secretion of inflammatory mediators was analyzed using ELISA techniques according to the instructions of the kit manufacturer.
Total RNA is prepared using SV total RNA isolation system (Promega). The cells were homogenized in lysis buffer. […] RNA concentrations were determined using GeneQuant II (Pharmacia-Amersham). […] Quantitative real-time RT-PCR included 1 μl of the cDNA, 300 nM of the appropriate forward and reverse primers (according to the gene monitored) and 7.5 μl of the reaction mix containing buffer, nucleotides, Taq polymerase and SYBER green (SYBER Green master mix, Applied Biosystems), in a total reaction volume of 15 μl. […]

CCCCC(C)(C)c1cc(O)c2c(c1)OC1CCCCC21 (stereo not shown) [Compound C6S-3, 3-(1,1-dimethylpentyl)-5a,6,7,8,9,9a-hexahydro-dibenzofuran-1-ol]
regained normal weight after [1]: 4 days of treatment
transient loss in body weight ([1]; one day after TNBS instillation): about 5%
mortality ([1]; untreated 60%): 7%

CCCCC(C)(C)c1cc(O)c2c(c1)OC1C2CCC(C)(C)C1O (stereo not shown) [Compound C6S-7, 3-(1,1-dimethylpentyl)-7,7-dimethyl-5a,6,7,8,9,9a-hexahydro-dibenzofuran-1,6-diol]
Percent inhibition of gene expression, IL-10 [2]: 33%
